Test system: neuropathy model mice
Test: Von Frey filament stimulation test in streptozotocin-induced neuropathy animal model
Assay type: in vivo, ICR mice
Conditions: oral, 10, 20, 40 and 80 mg/kg in physiological saline; tested 1, 2, 3, 4 and 5 hours after administration; FIG. 1
Experimental: First, a neuropathy animal model was prepared by administering streptozocin. Specifically, streptozotocin was intraperitoneally administered to 4-week-old ICR mice at the concentration of 75 mg/kg. Five weeks after the administration, the expression of neuropathy was confirmed through the level of blood glucose and Von Frey filament stimulation tests, and the mice were used for the following experiments.
Specifically, trimethobenzamide was dissolved in physiological saline to prepare trimethobenzamide solutions with the concentrations of 10, 20, 40 and 80 mg/kg. The prepared trimethobenzamide solutions were orally administered to neuropathy model mice, and Von Frey filament stimulation test was performed 1, 2, 3, 4 and 5 hours after the administration to confirm the inhibitory effect on neuropathy.
Specifically, trimethobenzamide or tramadol was dissolved in physiological saline to prepare trimethobenzamide solution with the concentration of 60 mg/kg, or tramadol solution with the concentration of 20 mg/kg. After co-administration of the tramadol solution with the concentration of 20 mg/kg and the trimethobenzamide solution with the concentration of 20, 40 or 60 mg/kg solution, the effect of the co-administration was confirmed. […]

## COc1cc(C(=O)NCc2ccc(OCCN(C)C)cc2)cc(OC)c1OC [trimethobenzamide]
  inhibitory effect on neuropathy (pain), trimethobenzamide administered alone: significant effect on the inhibition of neuropathy in a concentration-dependent manner

Reference: patent US20220257542A1, “PHARMACEUTICAL COMPOSITION COMPRISING TRIMETHOBENZAMIDE OR PHARMACEUTICALLY ACCEPTABLE SALT THEREOF AS ACTIVE INGREDIENT FOR PREVENTING OR TREATING NEUROPATHIC PAIN” (FRONTBIO INC., priority 2019, published 2022)
